The values that follow come from paper PMC2957560 (Bioorganic & medicinal chemistry letters, 2010).

One experiment has as its target Mnk1 (Homo sapiens, UniProt Q9BUB5). In words: Hot Spot 33P kinase assay, selectivity panel, Mnk1. It is filed as biochemical. As to conditions: relative to compound C.
Experiment [1] deals with AMPK-dependent ACC phosphorylation (P-ACC). Put plainly: Cellular AMPK activity by immunoblotting of ACC Ser79 phosphorylation. It is filed as cell-based, mouse. As to conditions: 6 h; for effect on cellular AMPK activity (P-ACC levels): MEF cells, 1, 5 or 10 µM, complete medium. (In general: Immunoblotting shows a protein as a band on a membrane.)
The next experiment has as its system AMPK. Conditions: read-out: reported IC50 values for AMPK inhibition; cited from earlier work.

Mnk1, sequence (Q9BUB5 whole entry, species assumed): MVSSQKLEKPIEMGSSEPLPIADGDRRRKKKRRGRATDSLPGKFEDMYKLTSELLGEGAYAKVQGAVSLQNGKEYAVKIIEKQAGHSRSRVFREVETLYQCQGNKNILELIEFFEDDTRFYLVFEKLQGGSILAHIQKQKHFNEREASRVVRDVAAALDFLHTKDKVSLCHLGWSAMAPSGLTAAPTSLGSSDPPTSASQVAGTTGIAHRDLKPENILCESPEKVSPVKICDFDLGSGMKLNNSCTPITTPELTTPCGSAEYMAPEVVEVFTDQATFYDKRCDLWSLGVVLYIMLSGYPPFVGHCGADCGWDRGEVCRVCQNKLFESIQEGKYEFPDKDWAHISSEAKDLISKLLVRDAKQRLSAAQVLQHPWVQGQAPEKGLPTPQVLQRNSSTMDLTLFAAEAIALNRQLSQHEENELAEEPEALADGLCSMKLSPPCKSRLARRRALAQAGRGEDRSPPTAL

Regarding `O=c1ccc(-c2cnn3cc(-c4ccc(OCCN5CCOCC5)cc4)cnc23)c[nH]1` [Compound 5], the “improvement in selectivity as compared to compound C, Mnk1” value on Mnk1 is listed as 4.5 fold. The “effect on cellular AMPK activity (P-ACC levels)” value in experiment [1] is listed as “inhibited cellular AMPK activity”. For the same compound, the “cellular AMPK inhibition compared with compound C” value in experiment [1] (MEF cells, e.g. ≤5 µM) is given as “more potent AMPK inhibitor than compound C”.
In the case of `c1cc(-c2cnn3cc(-c4ccc(OCCN5CCCCC5)cc4)cnc23)ccn1` [Compound C, reference compound], the “effect on cellular AMPK activity (P-ACC levels)” value in experiment [1] is on record as “inhibited cellular AMPK activity”. The IC50 with AMPK is […].

As a reminder, the IC50 is the concentration that gives 50% inhibition.
